{"source": "patent US20240166683A1", "about": "“CHEMICAL TOOLS FOR RNA 3D STRUCTURE DETERMINATION IN VIVO” (UNIVERSITY OF SOUTHERN CALIFORNIA, priority 2022, published 2024)", "key": {"model RNA 1": {"tested_on": "model RNA 1", "assay": "In vitro crosslinking of model RNA 1 duplex, measured by polyacrylamide electrophoresis", "format": "biochemical", "conditions": "100 mM activated dicarboxylic acid, 10 μM model RNA 1, MOPS pH 7.5, 4 h at room temperature, PAGE", "procedure": "All experiments were performed in triplicate.\nSource data are provided as a Source Data file."}, "[1]": {"assay": "Hydrolysis of the acylating reagent at physiological pH, measured by NMR", "format": "physicochemical", "procedure": "We activated a set of eight dicarboxylic acids with diverse linker lengths and chemical properties (FIG. 1e). The efficiency of crosslinking RNA 1 was measured by polyacrylamide electrophoresis (FIG. 1e). […] This can be potentially explained by the inductive effect of the beta oxygen that substantially increases the reactivity of the activated ester, making it more susceptible to hydrolysis.\n(§1) a, Minimal and maximal possible lengths between the crosslinked 2′ oxygen groups in RNA, estimated in PyMOL. Hydroxyl groups are represented by the green oxygen atoms. […] The three lanes represent triplicate experiments. c, Reaction scheme of hydrolysis reaction of DPI. d, Hydrolysis of DPI in phosphate buffer pH 7.4 analyzed by NMR spectroscopy over time. e, Formation of hydrolyzed DPI products over time. After ˜30 min all DPI has been hydrolyzed. f, Hydrolysis of ApA in 100 mM borate buffer pH 10.0 analyzed by NMR spectroscopy over time. g, Formation of hydrolyzed ApA products over time, based on quantification of panel f. […] The three lanes represent triplicate experiments. i, An increase in crosslink reversal (=decrease in crosslinked RNA) is observed at increased pH and temperature, based on quantification of gel pictures in panel h. […]"}, "HEK293 cells": {"tested_on": "HEK293 cells", "assay": "In-cell SHARC crosslinking, recovery of crosslinked RNA fragments from DD2D gel", "format": "cell-based, human", "conditions": "HEK293 cells, 5, 12.5, or 25 mM DPI, RNase III fragmentation", "procedure": "SHARC-exo accurately measures static and dynamic spatial distances in RNA in cells. To test SHARC-exo, we first crosslinked HEK293 cells with DPI, fragmented RNA with RNase III, and isolated the crosslinked fragments using the DD2D gel method. We recovered 1-2% RNA fragments as crosslinked using 5, 12.5, or 25 mM DPI. We sequenced the SHARC-exo libraries and observed 3.3-14.5% of the reads are gapped, similar to PARIS. Crosslinked reads are highly reproducible at different DPI concentrations.\nIn vivo crosslinking. Hela and HEK293T cells with 80% confluency in a 10 cm dish were washed twice with 1× phosphate-buffered saline (PBS). […]\na, RNase R reduces arm length in PARIS-exo. b, RNase R trimming leads to enrichment of U at the 5th nucleotide from the 3′ end. c-e, An example of precise crosslink site identification using PARIS-exo. c, vertical lines indicate the 3′ ends (median) from PARIS and PARIS-exo reads. d, The PARIS-exo derived 3′ ends and crosslinking sites are mapped to the H79 and ES31 of human 28S secondary structure. e, cryo-EM structure of H79 and ES31 (PDB: 4V6X). f, HEK293 cells are crosslinked with DPI at different concentrations. […] The smear above the diagonal represents crosslinked RNA. h, Quantification of the recovery of crosslinked RNA fragments from the DD2D gel system (replicates n=9, 16 and 4 for the 3 conditions, respectively). […]"}, "[2]": {"assay": "Hydrolysis in borate buffer/DMSO at pH 10.0, monitored by 1H NMR", "format": "physicochemical", "text": "Reversing 2′-hydroxyl crosslinking under mild alkaline conditions without RNA damage. Reversal of the crosslinks is necessary for subsequent sequence analysis. We hypothesized that the lower stability of the 2′-acylation products relative to the phosphodiester bonds could allow selective crosslink reversal without causing RNA chain breaks. To test this, we first analyzed the rate of phosphodiester cleavage in a model RNA dinucleotide ApA (FIG. 1f). We compared it to the methyl ester of dipicolinic acid 2 (FIG. 1g), a simple ester derivative of the SHARC reagent DPI. The two compounds were incubated in a 3:1 mixture of 100 mM borate buffer and DMSO at pH 10.0, and the stability was monitored over time by ^1H NMR (FIG. 1h). […] In contrast, compound 2 was fully hydrolyzed after ˜120 min, with a rate constant of 3.5*10^−4 (FIG. 1g). From this we concluded that the ˜1000-fold difference in rate constant should provide sufficient opportunity to selectively reverse the crosslinks under mild alkaline conditions without RNA damage.\nas §1"}, "[3]": {"conditions": "3:1 100 mM borate buffer/DMSO, pH 10.0, 5 mM starting concentration"}}}
{"smiles": "O=C(COCC(=O)n1ccnc1)n1ccnc1", "note": "[Activated diglycolic acid]", "values": [{"measurement": "crosslinking efficiency of RNA 1", "setting": "model RNA 1", "result": 27, "unit": "%"}]}
{"smiles": "O=C(CCCC(=O)n1ccnc1)n1ccnc1", "note": "[Activated glutaric acid]", "values": [{"measurement": "crosslinking efficiency of RNA 1", "setting": "model RNA 1", "result": 94, "unit": "%"}]}
{"smiles": "O=C(c1cccc(C(=O)n2ccnc2)n1)n1ccnc1", "note": "[DPI, dipicolinic acid imidazolide]", "values": [{"measurement": "time after which all DPI has been hydrolyzed", "setting": "[1]; phosphate buffer pH 7.4, NMR", "result": "~30", "unit": "min"}, {"measurement": "time after which 50% was hydrolyzed", "setting": "[1]; physiological pH 7.4, room temperature, NMR", "result": 5, "unit": "min"}, {"measurement": "RNA fragments recovered as crosslinked", "setting": "HEK293 cells", "result": "1-2%"}]}
{"smiles": "COC(=O)c1cccc(C(=O)OC)n1", "note": "[compound 2, methyl ester of dipicolinic acid]", "values": [{"measurement": "rate constant of hydrolysis", "setting": "[2]; [3]", "result": "3.5*10^−4"}, {"measurement": "time to full hydrolysis", "setting": "[2]; [3]", "result": "~120", "unit": "min"}, {"measurement": "difference in rate constant, compound 2 vs ApA", "setting": "[2]; pH 10.0", "result": "~1000", "unit": "fold"}]}
